The structures appear in SMILES notation. pEC50: −log10 of the molar value.

For this test, the target named is T1, human GLP-1R receptor (Homo sapiens, UniProt P43220).
T1 construct: expressed in transfected cells
Kind of test: GLP-1R low expression cell assay (cAMP TR-FRET, CHO-K1_hGLP-1Rlow_clone10 cells). The following applies: for pEC50: cAMP TR-FRET, 30 min at 25° C.; for Emax: maximum activation relative to control GLP-1 peptide agonist. Format: cell-based. In short, it runs like this: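 Readout is cAMP TR-FRET after 30 min compound stimulation at 25 °C of a low-GLP-1R-expressing CHO-K1 clone (1,000 cells/well), with 10-point 3-fold serial dilutions. Percent activation versus a control GLP-1 peptide, from duplicates, was Hill-fitted to give EC50.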

T1 sequence (P43220 24-463): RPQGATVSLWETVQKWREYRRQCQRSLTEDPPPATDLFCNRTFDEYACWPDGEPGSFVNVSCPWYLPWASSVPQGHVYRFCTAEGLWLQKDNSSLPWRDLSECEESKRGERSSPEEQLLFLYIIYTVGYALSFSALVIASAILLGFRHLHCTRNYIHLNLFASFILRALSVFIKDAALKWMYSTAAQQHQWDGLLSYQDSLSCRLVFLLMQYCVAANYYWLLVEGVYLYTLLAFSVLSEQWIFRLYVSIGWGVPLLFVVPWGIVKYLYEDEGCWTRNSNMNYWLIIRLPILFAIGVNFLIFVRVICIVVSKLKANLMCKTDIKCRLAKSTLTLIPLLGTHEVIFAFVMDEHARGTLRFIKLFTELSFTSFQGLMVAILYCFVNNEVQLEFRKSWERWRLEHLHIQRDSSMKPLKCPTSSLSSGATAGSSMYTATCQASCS

As for `Cc1ccc(COc2cccc(C3CCN(Cc4nc5c(OC(F)F)cc(C(=O)O)cc5n4C)CC3)n2)c(F)c1` [Compound 238, 4-(Difluoromethoxy)-2-((4-(6-((2-fluoro-4-methylbenzyl)oxy)pyridin-2-yl)piperidin-1-yl)methyl)-1-methyl-1H-benzo[d]imidazole-6-carboxylic acid], the negative-log EC50 (pEC50) was 7.00 to 8.00 and the maximum response (Emax) is over 85%.

Take `Cn1c(CN2CCC(c3cccnc3NCc3ccc(Cl)cc3F)CC2)nc2c(OC(F)F)cc(C(=O)O)cc21` [Compound 239, 2-((4-(2-((4-Chloro-2-fluorobenzyl)amino)pyridin-3-yl)piperidin-1-yl)methyl)-4-(difluoromethoxy)-1-methyl-1H-benzo[d]imidazole-6-carboxylic acid]: the pEC50 was under 6.00 and the Emax was 50 to 85%.

The compound `CN1C(=O)[C@@H](c2ccc(Cl)cc2F)Oc2c(C3CCN(Cc4nc5c(OC(F)F)cc(C(=O)O)cc5n4C)CC3)cccc21` [Compound 240, (R)-2-((4-(2-(4-chloro-2-fluorophenyl)-4-methyl-3-oxo-3,4-dihydro-2H-benzo[b][1,4]oxazin-8-yl)piperidin-1-yl)methyl)-4-(difluoromethoxy)-1-methyl-1H-benzo[d]imidazole-6-carboxylic acid] gave a pEC50 of under 6.00 and a maximal effect (Emax) of under 25%.

For the compound `CN1C(=O)[C@H](c2ccc(Cl)cc2F)Oc2c(C3CCN(Cc4nc5c(OC(F)F)cc(C(=O)O)cc5n4C)CC3)cccc21` [Compound 241, (S)-2-((4-(2-(4-chloro-2-fluorophenyl)-4-methyl-3-oxo-3,4-dihydro-2H-benzo[b][1,4]oxazin-8-yl)piperidin-1-yl)methyl)-4-(difluoromethoxy)-1-methyl-1H-benzo[d]imidazole-6-carboxylic acid], the pEC50 was under 6.00 and the Emax was under 25%.

`Cn1c(CN2CCC(c3ccc(F)c(OCc4ccc(Cl)cc4F)n3)CC2)nc2c(OC(F)F)cc(C(=O)O)cc21` [Compound 242, 2-((4-(6-((4-Chloro-2-fluorobenzyl)oxy)-5-fluoropyridin-2-yl)piperidin-1-yl)methyl)-4-(difluoromethoxy)-1-methyl-1H-benzo[d]imidazole-6-carboxylic acid] had a pEC50 of 7.00 to 8.00 and a maximal effect (Emax) of over 85%.

`Cn1c(CN2CCC(c3nc(OCc4ccc(Cl)cc4F)ccc3F)CC2)nc2c(OC(F)F)cc(C(=O)O)cc21` [Compound 243, 2-((4-(6-((4-Chloro-2-fluorobenzyl)oxy)-3-fluoropyridin-2-yl)piperidin-1-yl)methyl)-4-(difluoromethoxy)-1-methyl-1H-benzo[d]imidazole-6-carboxylic acid] gave a pEC50 of 6.00 to 7.00 and an Emax of 50 to 85%.

As for `O=C(O)c1ccc2nc(CN3CCC(c4cccc(OCc5ccc(Cl)cc5F)n4)CC3)c3c(c2c1)COCC3` [Compound 244, 5-((4-(6-((4-chloro-2-fluorobenzyl)oxy)pyridin-2-yl)piperidin-1-yl)methyl)-3,4-dihydro-1H-pyrano[4,3-c]quinoline-9-carboxylic acid], the negative-log EC50 (pEC50) was under 6.00 and the maximum response (Emax) was under 25%.

On to `O=C(O)c1ccc2c(nc(CN3CCC(c4cccc(OCc5ccc(Cl)cc5F)n4)CC3)n2C[C@@H]2CCO2)c1O` [Compound 245, (S)-2-((4-(6-((4-Chloro-2-fluorobenzyl)oxy)pyridin-2-yl)piperidin-1-yl)methyl)-4-hydroxy-1-(oxetan-2-ylmethyl)-1H-benzo[d]imidazole-5-carboxylic acid], for which the pEC50 was over 8.00 and the maximum response (Emax) was over 85%.

In turn, `Cn1c(CN2CCC(c3cccc(OCc4ccc(Cl)cc4OC(F)F)n3)CC2)nc2c(OC(F)F)cc(C(=O)O)cc21` [Compound 246, 2-((4-(6-((4-Chloro-2-(difluoromethoxy)benzyl)oxy)pyridin-2-yl)piperidin-1-yl)methyl)-4-(difluoromethoxy)-1-methyl-1H-benzo[d]imidazole-6-carboxylic acid] gave a pEC50 of over 8.00 and a maximum response (Emax) of over 85%.

`Cn1c(CN2CCC(c3cccc(OCc4ccc(Cl)cn4)n3)CC2)nc2c(OC(F)F)cc(C(=O)O)cc21` [Compound 247, 2-((4-(6-((5-Chloropyridin-2-yl)methoxy)pyridin-2-yl)piperidin-1-yl)methyl)-4-(difluoromethoxy)-1-methyl-1H-benzo[d]imidazole-6-carboxylic acid] gave a pEC50 of 6.00 to 7.00 and an Emax of over 85%.

`Cn1c(CN2CCC(c3cccc(OCc4ccccc4Cl)n3)CC2)nc2c(OC(F)F)cc(C(=O)O)cc21` [Compound 248, 2-((4-(6-((2-Chlorobenzyl)oxy)pyridin-2-yl)piperidin-1-yl)methyl)-4-(difluoromethoxy)-1-methyl-1H-benzo[d]imidazole-6-carboxylic acid] gave a pEC50 of 6.00 to 7.00 and a maximal effect (Emax) of over 85%.

For `Cn1c(CN2CCC(c3cccc(OCc4ccc(F)cc4F)n3)CC2)nc2c(OC(F)F)cc(C(=O)O)cc21` [Compound 250, 2-((4-(6-((2,4-Difluorobenzyl)oxy)pyridin-2-yl)piperidin-1-yl)methyl)-4-(difluoromethoxy)-1-methyl-1H-benzo[d]imidazole-6-carboxylic acid], the pEC50 is 7.00 to 8.00.

For `Cn1c(CN2CCC(c3cccc(OCc4ccccc4F)n3)CC2)nc2c(OC(F)F)cc(C(=O)O)cc21` [Compound 251, 4-(Difluoromethoxy)-2-((4-(6-((2-fluorobenzyl)oxy)pyridin-2-yl)piperidin-1-yl)methyl)-1-methyl-1H-benzo[d]imidazole-6-carboxylic acid], the pEC50 was 6.00 to 7.00.

The compound `Cn1c(CN2CCC(c3cccc(OCc4ccc(Cl)cc4)n3)CC2)nc2c(OC(F)F)cc(C(=O)O)cc21` [Compound 252, 2-((4-(6-((4-Chlorobenzyl)oxy)pyridin-2-yl)piperidin-1-yl)methyl)-4-(difluoromethoxy)-1-methyl-1H-benzo[d]imidazole-6-carboxylic acid] had a pEC50 of 7.00 to 8.00.

`Cn1c(CN2CCC(c3cccc(OCc4ccc(Cl)cc4F)n3)CC2)nc2c(OC(F)F)nc(C(=O)O)cc21` [Compound 253, 2-((4-(6-((4-Chloro-2-fluorobenzyl)oxy)pyridin-2-yl)piperidin-1-yl)methyl)-4-(difluoromethoxy)-1-methyl-1H-imidazo[4,5-c]pyridine-6-carboxylic acid] had a negative-log EC50 (pEC50) of 7.00 to 8.00.

With `Cn1c(CN2CCC(c3cccc(OCc4ccc(F)cc4)n3)CC2)nc2c(OC(F)F)cc(C(=O)O)cc21` [Compound 254, 4-(Difluoromethoxy)-2-((4-(6-((4-fluorobenzyl)oxy)pyridin-2-yl)piperidin-1-yl)methyl)-1-methyl-1H-benzo[d]imidazole-6-carboxylic acid], the negative-log EC50 (pEC50) was 6.00 to 7.00.

Consider `Cn1c(CN2CCC(c3cccc(OCc4ccc(Cl)cc4F)n3)CC2)nc2c(OC(F)F)cc(NCC(=O)O)cc21` [Compound 255, (2-((4-(6-((4-chloro-2-fluorobenzyl)oxy)pyridin-2-yl)piperidin-1-yl)methyl)-4-(difluoromethoxy)-1-methyl-1H-benzo[d]imidazol-6-yl)glycine], for which the negative logarithm of the EC50 (pEC50) was 6.00 to 7.00 and the Emax is 50 to 85%.

As for `CCOc1cc(C(=O)O)cc2c1nc(CN1CCC(Oc3cccc(COc4ccc(Cl)cc4F)n3)CC1)n2C` [Compound 256, 2-((4-((6-((4-chloro-2-fluorophenoxy)methyl)pyridin-2-yl)oxy)piperidin-1-yl)methyl)-4-ethoxy-1-methyl-1H-benzo[d]imidazole-6-carboxylic acid], the pEC50 is over 8.00 and the Emax is over 85%.

Take `COc1cc(C#CC(=O)O)cc2c1nc(CN1CCC(c3cccc(OCc4ccc(Cl)cc4F)n3)CC1)n2C[C@@H]1CCO1` [Compound 257, (S)-3-(2-((4-(6-((4-Chloro-2-fluorobenzyl)oxy)pyridin-2-yl)piperidin-1-yl)methyl)-4-methoxy-1-(oxetan-2-ylmethyl)-1H-benzo[d]imidazol-6-yl) propiolic acid]: the negative-log EC50 (pEC50) is 7.00 to 8.00 and the Emax was 50 to 85%.

Take `COc1cc(C(=O)O)cc2c1nc(CN1CCC(c3cccc4c3OC[C@H](c3ccc(Cl)cc3F)O4)CC1)n2C` [Compound 258, (S)-2-((4-(2-(4-Chloro-2-fluorophenyl)-2,3-dihydrobenzo[b][1,4]dioxin-5-yl)piperidin-1-yl)methyl)-4-methoxy-1-methyl-1H-benzo[d]imidazole-6-carboxylic acid]: the negative-log EC50 (pEC50) was 6.00 to 7.00 and the maximal effect (Emax) was over 85%.

Regarding `CCOc1cc(CC(=O)O)cc2c1nc(CN1CCC(c3cccc(OCc4ccc(C#N)cc4F)n3)CC1)n2C` [Compound 259, 2-(2-((4-(6-((4-Cyano-2-fluorobenzyl)oxy)pyridin-2-yl)piperidin-1-yl)methyl)-4-ethoxy-1-methyl-1H-benzo[d]imidazol-6-yl) acetic acid], the negative logarithm of the EC50 (pEC50) is 6.00 to 7.00 and the Emax was over 85%.

The compound `CCOc1cc(-c2nc(=O)o[nH]2)cc2c1nc(CN1CCC(c3cccc(OCc4ccc(C#N)cc4F)n3)CC1)n2C` [Compound 260, 4-(((6-(1-((4-ethoxy-1-methyl-6-(5-oxo-2,5-dihydro-1,2,4-oxadiazol-3-yl)-1H-benzo[d]imidazol-2-yl)methyl)piperidin-4-yl)pyridin-2-yl)oxy)methyl)-3-fluorobenzonitrile] gave a negative logarithm of the EC50 (pEC50) of 7.00 to 8.00 and a maximal response (Emax) of over 85%.

The compound `CCOc1cc(C(=O)NS(C)(=O)=O)cc2c1nc(CN1CCC(c3cccc(OCc4ccc(C#N)cc4F)n3)CC1)n2C` [Compound 261, 2-((4-(6-((4-Cyano-2-fluorobenzyl)oxy)pyridin-2-yl)piperidin-1-yl)methyl)-4-ethoxy-1-methyl-N-(methylsulfonyl)-1H-benzo[d]imidazole-6-carboxamide] gave a pEC50 of 7.00 to 8.00 and an Emax of over 85%.

What is called pEC50 is the negative decadic logarithm of the EC50, by convention in mol/L. Low values mean a high EC50, high ones a low EC50. What is called Emax is the maximal effect, on the per cent scale that the assay sets.

The values are drawn from patent publication US20240368120A1 (Terns Pharmaceuticals, Inc., priority 2023, published 2024).
